Experimental data from patent publication US20260224563A1, “CRYSTALLINE FORMS OF 6-(3-((5-CHLORO-2-METHOXYPYRIDINE)-3-SULFONAMIDO)-2,6-DIFLUOROPHENYL)-N-METHYLIMIDAZO[1,5-A]PYRAZINE-1-CARBOXAMIDE AND METHODS FOR USING THE SAME” (HIBERCELL, INC., priority 2023, published 2026).
Read-outs that look alike come from different tables or passages of the source.

Assay: Multicenter, open-label, Phase 1a/b study of HC-7366 in subjects with advanced solid tumors (safety, PK)
Assay type: in vivo
Conditions: for AUC(0-t) / Vd/F / Tmax / Cmax / half-life / % AUCextrap / CL/F / DAUC0-24 / DAUC0-last / DAUC0-∞ / DCmax / tlast / LR / AUC / AUC(0-inf): human; for AUC(0-t) / Vd/F / Tmax / Cmax / half-life / AUC / AUC(0-inf): plasma; for AUC(0-t) / Vd/F / Tmax / Cmax / half-life: po; for Vd/F: read-out: Vz/F; for LR: linearity ratio; for AUC: read-out: AUC0-τ
From the text: Identify the maximum tolerated dose (MTD) and/or recommended Phase 2 dose (RP2D) of HC-7366, and evaluate the safety, tolerability, and dose-limiting toxicities (DLTs) of HC-7366 using Form III of the potassium salt of the compound of formula (I) (see Example 6, also referred to within this example as HC-7366-K), in subjects with advanced solid tumors, including: • a. occurrence of DLTs • b. incidence and severity of treatment-emergent adverse events (TEAEs) and treatment related TEAEs according to National Cancer Institute Common Terminology Criteria for Adverse Events (NCI CTCAE) v 5.0 • c. incidence of TEAEs leading to premature discontinuation • d. incidence of laboratory abnormalities, based on NCI CTCAE grades of hematology, serum chemistry, and urinalysis test results • e. incidence of abnormalities observed in 12 lead ECG parameters • f. incidence of abnormalities observed in vital signs measurements
Determine plasma concentration and pharmacokinetic (PK) parameters following treatment with HC-7366 using Form III of the potassium salt of the compound of formula (I) (see Example 6, also referred to within this example as HC-7366-K).
Preliminarily assess the potential antitumor activity of HC-7366 in terms of response rate, disease stabilization, and survival outcomes by assessing: • a. Overall response rate (ORR) to HC-7366 using response evaluation criteria in solid tumors (iRECIST) • b. Duration of response (DOR) to HC-7366 using iRECIST • c. Time to treatment failure (TTF) • d. Progression free survival (PFS) using iRECIST • e. Overall survival (OS)
This is a first in human, multicenter, open label, Phase 1a and 1b dose-escalation and dose-expansion study to establish the maximum tolerated dose, recommended Phase 2 dose, and evaluate the safety and tolerability of QD oral dosing of HC 7366 in a dose escalating fashion in subjects with advanced solid tumors. Up to 40 subjects were enrolled into the Phase 1a dose-escalation part of the study. The study was conducted in the United States at approximately 7 to 10 sites.
Every effort was made to ensure approximately 50% of all subjects enrolled into Phase 1a of this study are subjects with the tumors of special interest including squamous cell carcinoma of the head and neck, colorectal cancer, non-small cell lung cancer, and transitional cell carcinoma of the bladder. […] All subjects in Phase 1b enrolled with clear cell renal cell carcinoma. The Phase 1a study followed a traditional 3+3 design. The starting dose level was 10 mg QD, escalating to 20, 40, 75, 125, and 150 mg QD as safety allows. All doses were administered in the fasting state with water at least 1 hour before food or at least 2 hours after food.
The Phase 1b dose-expansion was at a single dose level of 75 mg based on the safety, tolerability, PK/PD results from Phase 1a to obtain additional safety and preliminary efficacy information. Up to 30 subjects were enrolled in the Phase 1b portion of the study at the 75 mg dose. Replacement patients were enrolled as necessary. Subjects were dosed until unacceptable toxicity, disease progression per immune-related Response Evaluation Criteria in Solid Tumors, discontinuation of treatment for other protocol allowed reason (eg, subject refusal), any other administrative reasons, or after 2 years of treatment, whichever occurs first.
For scheduling purposes, dosing in Phase 1a and 1b occurred in 3 week cycles and computed tomography scans were conducted once every 6 weeks from Cycle 1/Day 1, with the first postbaseline scan after 6 weeks of dosing (precycle 3) until confirmed disease progression, death, start of new anticancer therapy, withdrawal of consent, or end of study, whichever occurs first.
Subjects of Phase 1a and 1b spent Cycle 1/Day 1 (C1D1) in the clinic followed by an optional overnight stay for safety monitoring and PK sampling. Subjects were hospitalized (optional) for administration of the first 2 doses: C1D1 and Cycle 1/Day 2 (C1D2). […]

[1] = 75 mg, multiple once daily oral 75 mg (N = 7), Cycle 1 Day 21, geometric mean
[2] = 75 mg, single oral dose 75 mg (N = 10), Cycle 1 Day 1, geometric mean
[3] = 125 mg, multiple once daily oral 125 mg (N = 1), Cycle 1 Day 21
[4] = 125 mg, single oral dose 125 mg (N = 6), Cycle 1 Day 1, geometric mean
[5] = single oral dose 10 mg (N = 3), Cycle 1 Day 1, geometric mean
[6] = single oral dose 20 mg (N = 3), Cycle 1 Day 1, geometric mean
[7] = single oral dose 40 mg (N = 11), Cycle 1 Day 1, geometric mean
[8] = single oral dose 75 mg (N = 10), Cycle 1 Day 1, geometric mean
[9] = single oral dose 125 mg (N = 6), Cycle 1 Day 1, geometric mean
[10] = multiple once daily oral 10 mg (N = 3), Cycle 1 Day 21, geometric mean
[11] = multiple once daily oral 20 mg (N = 3), Cycle 1 Day 21, geometric mean
[12] = multiple once daily oral 40 mg (N = 8), Cycle 1 Day 21, geometric mean
[13] = multiple once daily oral 75 mg (N = 7), Cycle 1 Day 21, geometric mean
[14] = multiple once daily oral 125 mg (N = 1), Cycle 1 Day 21

`CNC(=O)c1ncn2cc(-c3c(F)ccc(NS(=O)(=O)c4cc(Cl)cnc4OC)c3F)ncc12` [HC-7366, 6-(3-((5-chloro-2-methoxypyridine)-3-sulfonamido)-2,6-difluorophenyl)-N-methylimidazo[1,5-a]pyrazine-1-carboxamide] showed an AUC(0-t) (40 mg, single oral dose 40 mg (N = 11), Cycle 1 Day 1, geometric mean, read-out: AUC0-24) of 52900 ng·h/mL, an AUC(0-t) (40 mg, single oral dose 40 mg (N = 11), Cycle 1 Day 1, geometric mean, read-out: AUC0-last) of 52900 ng·h/mL and a Vd/F (40 mg, single oral dose 40 mg (N = 11), Cycle 1 Day 1, geometric mean) of 10.5 L. The Tmax (40 mg, single oral dose 40 mg (N = 11), Cycle 1 Day 1, median) was 2 h, the Cmax [1] was 14300 ng/mL and the half-life [1] was 17.8 h. It also gave an AUC(0-t) (75 mg, multiple once daily oral 75 mg (N = 7), Cycle 1 Day 21, geometric mean, read-out: AUC0-last) of 166000 ng·h/mL, a Vd/F [1] of 9.51 L and a Tmax (75 mg, multiple once daily oral 75 mg (N = 7), Cycle 1 Day 21, median) of 2 h. For the same compound, the Cmax [2] was 10200 ng/mL, the half-life [2] was 15.2 h and the AUC(0-t) (75 mg, single oral dose 75 mg (N = 10), Cycle 1 Day 1, geometric mean, read-out: AUC0-24) was 100000 ng·h/mL. It also gave an AUC(0-t) (75 mg, single oral dose 75 mg (N = 10), Cycle 1 Day 1, geometric mean, read-out: AUC0-last) of 100000 ng·h/mL, a Vd/F [2] of 11.2 L and a Tmax (75 mg, single oral dose 75 mg (N = 10), Cycle 1 Day 1, median) of 2 h. It also gave a Cmax [3] of 38200 ng/mL, a half-life [3] of 16.5 h and an AUC(0-t) (125 mg, multiple once daily oral 125 mg (N = 1), Cycle 1 Day 21, read-out: AUC0-last) of 260000 ng·h/mL. The Vd/F [3] was 7.4 L, the Cmax [4] was 18800 ng/mL and the half-life [4] was 14 h. It also gave an AUC(0-t) (125 mg, single oral dose 125 mg (N = 6), Cycle 1 Day 1, geometric mean, read-out: AUC0-24) of 216000 ng·h/mL, an AUC(0-t) (125 mg, single oral dose 125 mg (N = 6), Cycle 1 Day 1, geometric mean, read-out: AUC0-last) of 204000 ng·h/mL and a Vd/F [4] of 7.85 L. For the same compound, the Tmax (125 mg, single oral dose 125 mg (N = 6), Cycle 1 Day 1, median) was 2 h, the “% AUCextrap” value [5] was 22.7% and the CL/F [5] was 0.508 L/h. The DAUC0-24 [5] was 1510 ng·h/mL/mg, the DAUC0-last [5] was 1510 ng·h/mL/mg and the “DAUC0-∞” value [5] was 1970 ng·h/mL/mg. The DCmax [5] was 145 ng/mL/mg, the tlast (single oral dose 10 mg (N = 3), Cycle 1 Day 1, median) was 24.00 h and the “% AUCextrap” value [6] was 17.9%. The CL/F [6] was 0.544 L/h, the DAUC0-24 [6] was 1440 ng·h/mL/mg and the DAUC0-last [6] was 1440 ng·h/mL/mg. For the same compound, the “DAUC0-∞” value [6] was 1840 ng·h/mL/mg, the DCmax [6] was 116 ng/mL/mg and the tlast (single oral dose 20 mg (N = 3), Cycle 1 Day 1, median) was 24.00 h. For the same compound, the “% AUCextrap” value [7] was 31.0%, the CL/F [7] was 0.491 L/h and the DAUC0-24 [7] was 1320 ng·h/mL/mg. For the same compound, the DAUC0-last [7] was 1320 ng·h/mL/mg, the “DAUC0-∞” value [7] was 2040 ng·h/mL/mg and the DCmax [7] was 113 ng/mL/mg. The tlast (single oral dose 40 mg (N = 11), Cycle 1 Day 1, median) was 24.00 h, the “% AUCextrap” value [8] was 30.2% and the CL/F [8] was 0.508 L/h. The DAUC0-24 [8] was 1340 ng·h/mL/mg, the DAUC0-last [8] was 1340 ng·h/mL/mg and the “DAUC0-∞” value [8] was 1970 ng·h/mL/mg. The DCmax [8] was 136 ng/mL/mg, the tlast (single oral dose 75 mg (N = 10), Cycle 1 Day 1, median) was 24.00 h and the “% AUCextrap” value [9] was 33.6%. The CL/F [9] was 0.390 L/h, the DAUC0-24 [9] was 1730 ng·h/mL/mg and the DAUC0-last [9] was 1630 ng·h/mL/mg. The “DAUC0-∞” value [9] was 2570 ng·h/mL/mg, the DCmax [9] was 150 ng/mL/mg and the tlast (single oral dose 125 mg (N = 6), Cycle 1 Day 1, median) was 24.00 h. The LR [10] was 1.11, the LR [11] was 1.14 and the LR [12] was 1.11. For the same compound, the LR [13] was 1.22, the LR [14] was 0.759 and the “subjects who discontinued treatment due to an AE” value (of 34 treated subjects, 10 to 125 mg cohorts) was 5 subjects. It also gave an AUC [10] of 21900 ng·h/mL, an AUC [11] of 41900 ng·h/mL and an AUC [12] of 99300 ng·h/mL. It also gave an AUC [13] of 187000 ng·h/mL, an AUC [14] of 401000 ng·h/mL and an AUC(0-inf) [5] of 19700 ng·h/mL. The AUC(0-inf) [6] was 36800 ng·h/mL, the AUC(0-inf) [7] was 81500 ng·h/mL and the AUC(0-inf) [8] was 148000 ng·h/mL. For the same compound, the AUC(0-inf) [9] was 321000 ng·h/mL.
